Measured values published in PubChem BioAssay AID1918996 (Molecular Pharmacology Branch, DTP, NCI, 2023).

Test system: 349418-098-R-PDC complex spheroid growth
Assay: Anticancer human tumor 349418-098-R-PDC patient-derived lung adenocarcinoma cell line growth inhibition [AhR]
Settings: for IC50: curve of first compound; for viability, T/C: stronger effect = lower value
Outline: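 Agents were dosed in half-log steps down from roughly clinical Cmax, or from 10 microM where Cmax was unknown, alone and with AhR antagonists. Read-out: percent test/control growth of tumor spheroids containing HUVEC and MSC stromal cells.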

[1] = second compound 0.1 µM, first compound 0.0316 µM
[2] = second compound 0.1 µM, first compound 0.1 µM
[3] = second compound 0.1 µM, first compound 0.316 µM
[4] = second compound 0.1 µM, first compound 1 µM
[5] = second compound 0.1 µM, first compound 3.16 µM
[6] = second compound 0.1 µM, first compound 10 µM
[7] = second compound 0.316 µM, first compound 0.0316 µM
[8] = second compound 0.316 µM, first compound 0.1 µM
[9] = second compound 0.316 µM, first compound 0.316 µM
[10] = second compound 0.316 µM, first compound 1 µM
[11] = second compound 0.316 µM, first compound 3.16 µM
[12] = second compound 0.316 µM, first compound 10 µM
[13] = second compound 1 µM, first compound 0.0316 µM
[14] = second compound 1 µM, first compound 0.1 µM
[15] = second compound 1 µM, first compound 0.316 µM
[16] = second compound 1 µM, first compound 1 µM
[17] = second compound 1 µM, first compound 3.16 µM
[18] = second compound 1 µM, first compound 10 µM
[19] = second compound 3.16 µM, first compound 0.0316 µM
[20] = second compound 3.16 µM, first compound 0.1 µM
[21] = second compound 3.16 µM, first compound 0.316 µM
[22] = second compound 3.16 µM, first compound 1 µM
[23] = second compound 3.16 µM, first compound 3.16 µM
[24] = second compound 3.16 µM, first compound 10 µM
[25] = second compound 10 µM, first compound 0.0316 µM
[26] = second compound 10 µM, first compound 0.1 µM
[27] = second compound 10 µM, first compound 0.316 µM
[28] = second compound 10 µM, first compound 1 µM
[29] = second compound 10 µM, first compound 3.16 µM
[30] = second compound 10 µM, first compound 10 µM
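Further: spheroids exposed to agents for seven days before luminescence viability read.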
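Wherever viability, T/C is given: spheroids also contain HUVEC endothelial cells and human MSC stroma.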

CC(C)CC(NC(=O)C(Cc1ccccc1)NC(=O)c1cnccn1)B(O)O (stereo not given) + Cc1cncc(-c2nc(NCCc3c[nH]c4ccccc34)c3ncn(C(C)C)c3n2)c1
IC50 (second compound 0.1 µM): 1.41 nM | IC50 (second compound 0.316 µM): 1.28 nM | IC50 (second compound 1 µM): 1.06 nM | IC50 (second compound 3.16 µM): < 0.949 nM | IC50 (second compound 10 µM): < 0.949 nM | viability, T/C (second compound 0.1 µM, first compound 0.000949 µM): 70.6% | viability, T/C (second compound 0.1 µM, first compound 0.003 µM): 11.2% | viability, T/C (second compound 0.1 µM, first compound 0.00949 µM): 1.67% | viability, T/C (second compound 0.1 µM, first compound 0.03 µM): 0.88% | viability, T/C (second compound 0.1 µM, first compound 0.0949 µM): 0.78% | viability, T/C (second compound 0.1 µM, first compound 0.3 µM): 0.75% | viability, T/C (second compound 0.316 µM, first compound 0.000949 µM): 64.6% | viability, T/C (second compound 0.316 µM, first compound 0.003 µM): 8.44% | viability, T/C (second compound 0.316 µM, first compound 0.00949 µM): 1.59% | viability, T/C (second compound 0.316 µM, first compound 0.03 µM): 0.9% | viability, T/C (second compound 0.316 µM, first compound 0.0949 µM): 0.92% | viability, T/C (second compound 0.316 µM, first compound 0.3 µM): 0.62% | viability, T/C (second compound 1 µM, first compound 0.000949 µM): 54.1% | viability, T/C (second compound 1 µM, first compound 0.003 µM): 9.85% | viability, T/C (second compound 1 µM, first compound 0.00949 µM): 1.7% | viability, T/C (second compound 1 µM, first compound 0.03 µM): 0.85% | viability, T/C (second compound 1 µM, first compound 0.0949 µM): 0.77% | viability, T/C (second compound 1 µM, first compound 0.3 µM): 1.06% | viability, T/C (second compound 3.16 µM, first compound 0.000949 µM): 20.6% | viability, T/C (second compound 3.16 µM, first compound 0.003 µM): 5.89% | viability, T/C (second compound 3.16 µM, first compound 0.00949 µM): 1.01% | viability, T/C (second compound 3.16 µM, first compound 0.03 µM): 0.57% | viability, T/C (second compound 3.16 µM, first compound 0.0949 µM): 0.58% | viability, T/C (second compound 3.16 µM, first compound 0.3 µM): 0.62% | viability, T/C (second compound 10 µM, first compound 0.000949 µM): 2.07% | viability, T/C (second compound 10 µM, first compound 0.003 µM): 1.16% | viability, T/C (second compound 10 µM, first compound 0.00949 µM): 0.23% | viability, T/C (second compound 10 µM, first compound 0.03 µM): 0.14% | viability, T/C (second compound 10 µM, first compound 0.0949 µM): 0.11% | viability, T/C (second compound 10 µM, first compound 0.3 µM): 0.15%

CC(C)c1c(-c2ccccc2)nc2c(C#N)c[nH]n2c1=O + Cc1ccccc1N=Nc1ccc(NC(=O)c2ccnn2C)c(C)c1
IC50 (second compound 0.1 µM): > 10000 nM | IC50 (second compound 0.316 µM): > 10000 nM | IC50 (second compound 1 µM): > 10000 nM | IC50 (second compound 3.16 µM): > 10000 nM | IC50 (second compound 10 µM): > 10000 nM | viability, T/C [1]: 79.3% | viability, T/C [2]: 85.6% | viability, T/C [3]: 95.2% | viability, T/C [4]: 98% | viability, T/C [5]: 78% | viability, T/C [6]: 76.5% | viability, T/C [7]: 88.2% | viability, T/C [8]: 87.3% | viability, T/C [9]: 86.2% | viability, T/C [10]: 88.7% | viability, T/C [11]: 80% | viability, T/C [12]: 84.7% | viability, T/C [13]: 91.6% | viability, T/C [14]: 79.8% | viability, T/C [15]: 88.8% | viability, T/C [16]: 91.4% | viability, T/C [17]: 79.9% | viability, T/C [18]: 58.7% | viability, T/C [19]: 81.7% | viability, T/C [20]: 89.9% | viability, T/C [21]: 85.2% | viability, T/C [22]: 85.7% | viability, T/C [23]: 53.9% | viability, T/C [24]: 62.4% | viability, T/C [25]: 47.5% | viability, T/C [26]: 58.1% | viability, T/C [27]: 59.1% | viability, T/C [28]: 50.4% | viability, T/C [29]: 44.7% | viability, T/C [30]: 57.1%

O=C(C=Cc1cccc(S(=O)(=O)Nc2ccccc2)c1)NO + Cc1ccccc1N=Nc1ccc(NC(=O)c2ccnn2C)c(C)c1
IC50 (second compound 0.1 µM): 772 nM | IC50 (second compound 0.316 µM): 706 nM | IC50 (second compound 1 µM): 597 nM | IC50 (second compound 3.16 µM): 671 nM | IC50 (second compound 10 µM): 331 nM | viability, T/C [1]: 132% | viability, T/C [2]: 119% | viability, T/C [3]: 73% | viability, T/C [4]: 47.6% | viability, T/C [5]: 10.4% | viability, T/C [6]: 1.93% | viability, T/C [7]: 126% | viability, T/C [8]: 108% | viability, T/C [9]: 82.8% | viability, T/C [10]: 36.1% | viability, T/C [11]: 8.81% | viability, T/C [12]: 1.91% | viability, T/C [13]: 109% | viability, T/C [14]: 122% | viability, T/C [15]: 69.3% | viability, T/C [16]: 33.3% | viability, T/C [17]: 8.25% | viability, T/C [18]: 2.09% | viability, T/C [19]: 94% | viability, T/C [20]: 94.1% | viability, T/C [21]: 78.3% | viability, T/C [22]: 34.7% | viability, T/C [23]: 8.53% | viability, T/C [24]: 2.35% | viability, T/C [25]: 74.7% | viability, T/C [26]: 72.5% | viability, T/C [27]: 50% | viability, T/C [28]: 22.9% | viability, T/C [29]: 8.56% | viability, T/C [30]: 2.05%

O=C(c1cc(Cc2n[nH]c(=O)c3ccccc23)ccc1F)N1CCN(C(=O)C2CC2)CC1 + CC(CO)NC(=O)c1cc(-c2ccc(Cl)cc2)nn(-c2cnn(C)c2)c1=O
IC50 (second compound 0.1 µM): > 10000 nM | IC50 (second compound 0.316 µM): 5210 nM | IC50 (second compound 1 µM): 7430 nM | IC50 (second compound 3.16 µM): 3540 nM | IC50 (second compound 10 µM): 482 nM | viability, T/C [1]: 84.2% | viability, T/C [2]: 81.6% | viability, T/C [3]: 82.8% | viability, T/C [4]: 101% | viability, T/C [5]: 64.2% | viability, T/C [6]: 60.1% | viability, T/C [7]: 101% | viability, T/C [8]: 101% | viability, T/C [9]: 89.7% | viability, T/C [10]: 64.4% | viability, T/C [11]: 63.6% | viability, T/C [12]: 39.2% | viability, T/C [13]: 95.5% | viability, T/C [14]: 74.4% | viability, T/C [15]: 73.7% | viability, T/C [16]: 66.9% | viability, T/C [17]: 59.8% | viability, T/C [18]: 44.8% | viability, T/C [19]: 85.4% | viability, T/C [20]: 87.9% | viability, T/C [21]: 77.9% | viability, T/C [22]: 61.2% | viability, T/C [23]: 55.2% | viability, T/C [24]: 33.7% | viability, T/C [25]: 42.1% | viability, T/C [26]: 60.6% | viability, T/C [27]: 58.6% | viability, T/C [28]: 43.5% | viability, T/C [29]: 38.3% | viability, T/C [30]: 33.7%

CC1(C)CCC(CN2CCN(c3ccc(C(=O)NS(=O)(=O)c4ccc(NCC5CCOCC5)c([N+](=O)[O-])c4)c(Oc4cnc5[nH]ccc5c4)c3)CC2)=C(c2ccc(Cl)cc2)C1 + Cc1cncc(-c2nc(NCCc3c[nH]c4ccccc34)c3ncn(C(C)C)c3n2)c1
IC50 (second compound 0.1 µM): > 10000 nM | IC50 (second compound 0.316 µM): > 10000 nM | IC50 (second compound 1 µM): > 10000 nM | IC50 (second compound 3.16 µM): < 31.6 nM | IC50 (second compound 10 µM): < 31.6 nM | viability, T/C [1]: 102% | viability, T/C [2]: 108% | viability, T/C [3]: 96.2% | viability, T/C [4]: 92.4% | viability, T/C [5]: 90.2% | viability, T/C [6]: 88.4% | viability, T/C [7]: 99.3% | viability, T/C [8]: 99.8% | viability, T/C [9]: 103% | viability, T/C [10]: 87.7% | viability, T/C [11]: 90.8% | viability, T/C [12]: 94.1% | viability, T/C [13]: 104% | viability, T/C [14]: 98.5% | viability, T/C [15]: 91.3% | viability, T/C [16]: 81.4% | viability, T/C [17]: 83% | viability, T/C [18]: 86.4% | viability, T/C [19]: 22.3% | viability, T/C [20]: 24.5% | viability, T/C [21]: 23.2% | viability, T/C [22]: 28.6% | viability, T/C [23]: 27.3% | viability, T/C [24]: 26.6% | viability, T/C [25]: 3.27% | viability, T/C [26]: 2.85% | viability, T/C [27]: 2.92% | viability, T/C [28]: 3.37% | viability, T/C [29]: 3.16% | viability, T/C [30]: 3.69%
